The values that follow come from US5939404A, “Cancer metastasis inhibitor containing a streptococcus agalactiae Ia type or Ib type surface polysaccharide as a main ingredient” (NGK Insulators, Ltd., priority 1997, dated 1999).

Assay [1] has as its system adhesion of the cancer cells HL-60 to the intravascular endothelial cells. Put plainly: Microscopic observation of adhesion of HL-60 cancer cells to intravascular endothelial cells (FIG. 8). The class given is cell-based, human. To be noted: interleukin-1β added (FIG. 8b) vs not added (FIG. 8a).
Excerpt: Slender, large cells are intravascular endothelial cells, and whitish, bright, round cells are cancer cells HL-60.
Another assay concerns E-selectin. Put plainly: E-selectin appearance on intravascular endothelial cells by fluorescent microscopy with E-selectin antibody (FIG. 7). The class given is cell-based. To be noted: interleukin-1β added (FIGS. 7(a), 7(b)) vs not added; human normal cells and strain #5. The method, then:
FIGS. 7(a) through 7(d) are microphotographs obtained by photographing with a fluorescent microscope to confirm whether E-selectin was produced or not at the surfaces of the intravascular endothelial cells, through coloring the human normal intravascular endothelial cells and the cell-lined human intravascular endothelial cell strains #5 with E-selectin antibody. As compared with cases in which no interleukin-1β was added (FIGS. 7(c) and 7(d)), it is clear that appearance of E-selectin was induced in cases where interleukin-1β was added (FIGS. 7(a) and 7(b)).

Assay [2] deals with adhesion between the cell-lined intravascular endothelial cell strain #5-1 and the cancer cells HL-60. Briefly: Adhesion inhibition of [35S]methionine-labeled HL-60 cancer cells to cell-lined intravascular endothelial cell strain #5-1 (FIGS. 9(a), 9(b)). The class given is cell-based, human. The conditions noted are these: at a concentration at which the Ia or Ib sugar chain exhibited adhesion inhibiting activity.
Description: (4) Next, how much adhesion of the cancer cell to the intravascular endothelial cells thus cultivated was inhibited by the addition of the sugar chain obtained above to the intravascular endothelial cells was examined. First, intravascular endothelial cells were placed on one plane of a 96-well plate, and appearance of E-selectin was induced by adding interleukin-1β to the cells. The cultivation for about 3 hours made E-selectin appear. The Ia type or Ib type sugar chain was added to it, and 1×10^4 cancer cells labeled with [^35 S] methionine were added to it, and the mixture was left at 37° C. for 30 minutes as it was. Thereafter, the mixture was immersed in and washed with PBS, and those cancer cells not adhered were washed off. The cells were recovered by adding 100 μl of a 0.1 N aqueous solution of sodium hydroxide to each of the 96-well plates, and a residual radioactivity value was measured by using a liquid scintillation counter.

Take “interleukin-1β: added to the cells to induce appearance of E-selectin”: in assay [1], the “adhesion of the cancer cells to the intravascular endothelial cells (microphotographs)” value was “more conspicuous”. Further, the “appearance of E-selectin” value with E-selectin was “induced”. colominic acid: in assay [2], the adhesion inhibiting activity entry is on record as “not almost exhibited”.
